Test: Oral bioavailability in rats compared with conventional formulations
Format: in vivo
Description: Glyceryl tricaprylate and tricaprate mixture solutions containing these drugs are admixed in complex slurry according to Example 1 and recovered as free-flowing powders as in Example 2. […] Oral bioavailability is tested in rats and compared with those from other conventional formulations.
A soy oil solution containing 100 parts per million of triclosan is admixed in a complex slurry containing 100 parts per million of chlorhexidine according to Example 1. Microbeads are then produced and recovered as free-flowing powders as in Example 2. […] Oral bioavailability is tested in rats and compared with those from other conventional formulations.

Gastrointestinal absorption (rat, in vivo, po)	Gastrointestinal absorption (rats, oral, from the microbeads/microcapsules versus powders, granules, or oil solution)	SMILES
more efficient		[H]/N=C(\N/C(=N/[H])NCCCCCCNC(=N)NC(=N)Nc1ccc(Cl)cc1)Nc1ccc(Cl)cc1 [chlorhexidine]
	more efficient	Oc1cc(Cl)ccc1Oc1ccc(Cl)cc1Cl [triclosan]

Source: patent US20190328670A1, “Microparticles for Oral Delivery” (Intervet Inc., priority 2004, published 2019)
